One series addresses human GluR4 (Homo sapiens, UniProt P48058). The series is described as follows: whole cell voltage clamp electrophysiological characterization of AMPA receptor potentiators (response to 100 μM glutamate). In kind it is cell-based. Particulars: HEK293 cells stably expressing human GluR4, voltage-clamped at −60 mV, Hill equation fit. The source says:
In another test, HEK293 cells stably expressing human GluR^4 (obtained as described in European Patent Application Publication No. EP-A1-0583917) were used in the electro-physiological characterization of AMPA receptor potentiators. The extracellular recording solution contained (in mM): 140 NaCl, 5 KCl, 10 HEPES, 1 MgCl2, 2 CaCl2, 10 glucose, pH=7.4 with NaOH, 295 mOsm kg^−1. The intracellular recording solution contained (in mM): 140 CsCl, 1 MgCl2, 10 HEPES, (N-[2-hydroxyethyl]piperazine-N^1-[2-ethanesulfonic acid]) 10 EGTA (ethylene-bis(oxyethylene-nitrilo)tetraacetic acid), pH=7.2 with CsOH, 295 mOsm kg^−1. […] Once stable baseline responses to this agonist challenge were obtained, the potentiator was introduced in the extracellular solution bathing the cells at the lowest concentration, and the response to 100 μM glutamate in the presence of this concentration of potentiator was determined.
The concentration of the potentiator, both in the bathing solution and co-applied with the agonist, was increased in half log units until the maximum potentiation was seen. […] Once the control responses to the agonist challenge were re-established, the potentiation of these responses by 100 μM cyclothiazide was determined by its inclusion in both the bathing solution and the agonist-containing solution. […]

A further series concerns the target T1, human GluR4B receptor (Homo sapiens, UniProt P48058).
T1 construct: expressed in transfected cells
Kind of series: potentiation of agonist-induced excitability, HEK cells expressing human GluR4B (Fluo3-AM fluorescence, glutamate). In kind it is cell-based. Particulars: human GluR4B receptor expressed in HEK 293 cells. The procedure:
96 well plates containing confluent monolayers of HEK cells stably expressing human GluR^4B (obtained as described in European Patent Application Publication Number EP-A1-583917) were prepared. The tissue culture medium in the wells was then discarded, and the wells were each washed once with 200 μl of 5NaCa buffer (glucose, 10 mM, sodium chloride, 138 mM, magnesium chloride, 1 mM, potassium chloride, 5 mM, calcium chloride, 5 mM, N-[2-hydroxyethyl]-piperazine-N-[2-ethanesulfonic acid], 10 mM, to pH 7.1 to 7.3). The plates were then incubated for 60 minutes in the dark with 20 μM Fluo3-AM dye (obtained from Molecular Probes Inc, Eugene, Oreg.) in 5 NaCa buffer in each well. After the incubation, each well was washed once with 100 μl 5NaCa buffer, 200 μl of 5NaCa buffer was added and the plates were incubated for 30 minutes. […]
Each test was then performed as follows. […] A first reading was then taken using a FLUOROSKAN II fluorimeter (Obtained from Labsystems, Needham Heights, Mass., USA, a Division of Life Sciences International Plc). […] A second reading was then taken using the fluorimeter. The plate was then left in the fluorimeter for 5 minutes, and a third reading was taken. 15 μl of 400 μM glutamate solution was then added to each well (final glutamate concentration 100 μM), and a fourth reading was taken immediately. Approximately three minutes later, a fifth reading was taken. […]

T1 sequence (P48058 21-902): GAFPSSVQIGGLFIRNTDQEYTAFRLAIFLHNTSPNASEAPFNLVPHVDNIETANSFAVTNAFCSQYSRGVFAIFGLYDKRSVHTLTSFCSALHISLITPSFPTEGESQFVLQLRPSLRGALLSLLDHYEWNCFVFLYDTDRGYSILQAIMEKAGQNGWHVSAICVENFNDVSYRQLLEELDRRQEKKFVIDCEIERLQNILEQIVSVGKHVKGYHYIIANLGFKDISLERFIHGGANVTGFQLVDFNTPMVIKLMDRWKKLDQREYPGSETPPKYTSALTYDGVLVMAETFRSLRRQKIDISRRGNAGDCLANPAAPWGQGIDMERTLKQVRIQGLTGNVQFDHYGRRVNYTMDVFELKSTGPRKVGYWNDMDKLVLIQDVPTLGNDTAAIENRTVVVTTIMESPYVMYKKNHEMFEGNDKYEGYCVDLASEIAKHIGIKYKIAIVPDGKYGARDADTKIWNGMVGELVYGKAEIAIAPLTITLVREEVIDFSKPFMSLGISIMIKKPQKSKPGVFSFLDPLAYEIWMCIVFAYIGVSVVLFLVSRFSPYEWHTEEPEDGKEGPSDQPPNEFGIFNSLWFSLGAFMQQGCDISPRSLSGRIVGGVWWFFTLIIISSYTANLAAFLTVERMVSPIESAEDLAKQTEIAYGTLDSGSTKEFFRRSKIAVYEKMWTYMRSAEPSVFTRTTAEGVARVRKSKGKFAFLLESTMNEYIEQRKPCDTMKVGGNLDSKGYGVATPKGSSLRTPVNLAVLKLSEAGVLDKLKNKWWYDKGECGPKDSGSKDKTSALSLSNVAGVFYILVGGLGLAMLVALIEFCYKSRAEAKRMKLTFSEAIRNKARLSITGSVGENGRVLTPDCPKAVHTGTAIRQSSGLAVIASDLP
Chain of human GluR4 (P48058 21-902): as above

As to `CC(CNS(=O)(=O)C(C)C)c1ccc(-c2ccsc2)cc1` (stereo not shown) [Example 28], the EC50 at human GluR4 was found to be 0.23 ± 0.059 µM.
Consider `CC(C)(C)c1ccc(C2(CNS(=O)(=O)C(F)(F)F)CC2)cc1` [Example 24, N−1-(4-t-butylphenyl)cyclopropylmethyl Trifluoromethanesulfonamide], for which the melting point lay in the range of 82 to 84 °C.
Turning to `NS(=O)(=O)c1cc2c(cc1Cl)NC(C1CC3C=CC1C3)NS2(=O)=O` (stereo not shown) [cyclothiazide], the “potentiation of agonist-induced excitability of human GluR4B receptor” value on human GluR4B receptor is “potentiate agonist-induced excitability”.
With `CC(C)S(=O)(=O)NCC1(c2ccc(C(C)(C)C)cc2)CC1` [Example 25, N-1-(4-t-butylphenyl)cyclopropylmethyl 2-propanesulfonamide], the melting point lay in the range of 87 to 89.5 °C.

The values above are taken from patent publication US20040054009A1, “(BIS)sulfonamide derivatives” (priority 2002, published 2004).
